Measurements: patent US7033829B2, “Method to inhibit cell growth using oligonucleotides” (Trustees of Boston University, priority 2000, dated 2006)

Tests used:
[1] = test system: GADD 45, ERCC 3 and SDI 1 mRNA; assay: Northern blot of GADD 45, ERCC 3 and SDI 1 in SCC12F cells; assay type: cell-based, human; details: 100 μM; as early as 24 hours, several days
Procedure: Paired cultures of SCC12F cells were maintained in a Dulbecco's modified Eagle's Medium-based keratinocyte growth medium (DMEM; GIBCO/BRL, Gaithersburg, Md.) supplemented with 10% fetal calf serum (Hyclone Labs, Logan, Utah) and epidermal growth factor as described (Hollander, M. C. et al., J. Biol. Chem. 268:328–336 (1992)). Pre-confluent cultures were given fresh medium supplemented with either 100 μM T2, or an equal volume of diluent. Cells were collected daily after additions, and processed for total RNA isolation using the Tri-Reagent extraction method (Molecular Research Center, Cincinnati, Ohio) following the protocol of the manufacturer. Ten micrograms of RNA from each sample was gel electrophoresed, transferred to a nylon filter and probed as described previously (Nada, A. et al., Exp. Cell Res. 211:90–98 (1994)). The cDNA for GADD 45 was generated by PCR using primers based on the human GADD 45 gene sequence (Mitsudomi, T. et al., Oncogene 7:171–180 (1992)). The cDNA for ERCC 3 was purchased from the American Type Culture Collection (ATCC, Rockville, Md.). The SDI 1 cDNA was a gift of Dr. J. Smith and has been described previously (Walworth, N.C. and Bernards, R., Science 271:353–356 (1996)).

[2] = test system: Normal human neonatal fibroblasts; assay: Cell growth of normal neonatal fibroblasts; assay type: cell-based; details: 100 μM
Procedure: Normal human neonatal fibroblasts were plated in Falcon P35 culture dishes at a density of 9×10^4 cells/dish. The culture medium was DME+10% calf serum, 2 ml per plate. One day after plating, cultures were supplemented with either 100 μM T2 in DME or 100 μM A2 in DME, or water (control). Two plates were collected and counted before the additions to give a starting, or “day 0,” reading. Duplicate plates of each condition were harvested through five days after addition of the supplements and cell number determined. All cell counts were done by Coulter™ Counter.
In a second experiment, normal human neonatal fibroblasts were plated and cultured, as described above in Example 1 for SCC12F cells. Cultures were supplemented with either 100 μM T2 or water (control), and cells were harvested for cell counts. The cell yield in fibroblast cultures treated with T2 was reduced by 40% compared to that of paired control cultures after three days (FIG. 8). This corresponds to 4 population doublings in this time for control cells, compared with 3.6 doublings for T2-treated cells.

[3] = test system: BP DNA adducts (CAT reporter plasmid) in H1299 cells; assay: Repair of BP-damaged CAT reporter plasmid in H1299 cells; assay type: cell-based, human
Procedure: Preconfluent cultures of H1299 cells were transfected with an expression vector containing the wild type human p53 cDNA under the control of the human cytomegalovirus promoter/enhancer (Dr. Bert Vogelstein, Johns Hopkins Oncology Center). Control transfections were performed using the same vector lacking the p53 cDNA. Transfections were carried out as described previously.
The pCAT vector (Promega) was treated with benzo[a]pyrene-7,8-diol-9,10-epoxide (BP) as described (Athas et al. Cancer Res 1991) to produce less damaged and more damaged plasmids, previously shown to be instructive in studies examining different repair capacities in human cells. Based on the incorporation of ^3H-BPDE into the DNA, the less damaged plasmid contained 25 adducts per 5 kb plasmid and the more damaged plasmid contained 50 adducts. This non-replicating vector contains the chloramphenicol acetyltransferase gene under control of SV40 promoter and enhancer sequences. Human keratinocytes and p53-transfected H1299 cells were pre-treated with either 100 μM pTpT or an equal volume of diluent (DMEM) alone for 48 hours, then transfected with either BP-modified pCAT-control vector (0.5 μg/ml) or unmodified vector (0.5 μg/ml) together with PSV-β-galactosidase control vector (0.5 μg/ml). Cells were collected in a reporter lysis buffer (Promega) 24 hours after transfection. CAT enzyme activity was determined using the liquid scintillation counting protocol and components of the assay system kit (Promega). ^14C-labeled chloramphenicol[50–60 mCi(1.85–2.22 GBq)/mmol] was purchased from New England Nuclear (Boston, Mass.). CAT activity was normalized with β-galactosidase activity.
To confirm that pTpT enhances repair of BP-DNA adducts, at least in part, through p53 activation, p53-null H1299 cells were transfected with the p53 expression vector, and p53 protein expression was then confirmed by western blot analysis 48 hours after transfection.

SOD2 = SOD2 western blot in fibroblasts; assay type: cell-based, human; details: 100 μM
Procedure: Fibroblasts (newborn human) were maintained in Dulbecco's Modified Eagle Medium (DMEM) supplemented with 10% calf serum (CS) and 100 μM pTpT or diluent as control. Total cellular proteins were harvested at different intervals after stimulation and processed for western blot analysis. The blot was reacted with anti SOD2 antibodies (The Binding Site, Inc. San Diego, Calif.). […] Coomassie blue-stained residual bands on the gel confirmed uniform loading of the different lanes.

With thymidine dinucleotide [pTpT] the “mRNAs for GADD 45, ERCC 3 and SDI 1” value [1] was “up-regulated”, the “cell yield reduced compared to paired control cultures” value ([2]; after three days) was 40% and the population doublings ([2]; three days (control 4)) was 3.6. For the same substance, the “plasmid repair efficiency versus diluent pre-treated cells” value ([3]; p53+ H1299 cells, high level of BP damage) was “more than three times as efficiently”, the “plasmid repaired more efficiently than in diluent pre-treated cells” value ([3]; p53+ H1299 cells, low level of BP damage) was 80%±50% and the “repair capacity versus diluent” value ([3]; p53- H1299 cells) was “the repair capacity was the same”. For the same substance, the SOD2 protein induction (SOD2) was “SOD2 induction was sustained at least through 32 hours”.
